Active and inactive are the calls of the source. The rule behind the calls is not given here. Side chains are listed from the residue outwards. Peptide text beside a SMILES is read from it. * marks the point of attachment. Biotin = O=C1N[C@H]2[C@H](CS[C@H]2CCCCC(=O)*)N1; PEG4 = NCCOCCOCCOCCOCCC(=O)O
Legend:
[1] = biological target: T1, Heat shock protein HSP 90-beta (Homo sapiens, UniProt P08238); assay: Binding affinity to human Hsp90 closed state by fluorescence polarization anisotropy
[2] = biological target: T1, Heat shock protein HSP 90-beta; assay: Binding affinity to human Hsp90 open state by fluorescence polarization anisotropy
Jurkat = assay: Cytotoxicity against human Jurkat T-lymphoblastoid leukemia cells after 24 to 48 hrs by MTS assay; format: cell-based
[3] = Binding affinity to Saccharomyces cerevisiae Hsc82 closed state by fluorescence polarization anisotropy method in presence of non-hydrolyzable ATP analog AMPPNP
[4] = Binding affinity to Saccharomyces cerevisiae Hsc82 open apo state by fluorescence polarization anisotropy method
[5] = biological target: T1, Heat shock protein HSP 90-beta; assay: Binding affinity to Hsp90 after 1 hrs by Western blotting

T1 sequence (P08238 whole entry): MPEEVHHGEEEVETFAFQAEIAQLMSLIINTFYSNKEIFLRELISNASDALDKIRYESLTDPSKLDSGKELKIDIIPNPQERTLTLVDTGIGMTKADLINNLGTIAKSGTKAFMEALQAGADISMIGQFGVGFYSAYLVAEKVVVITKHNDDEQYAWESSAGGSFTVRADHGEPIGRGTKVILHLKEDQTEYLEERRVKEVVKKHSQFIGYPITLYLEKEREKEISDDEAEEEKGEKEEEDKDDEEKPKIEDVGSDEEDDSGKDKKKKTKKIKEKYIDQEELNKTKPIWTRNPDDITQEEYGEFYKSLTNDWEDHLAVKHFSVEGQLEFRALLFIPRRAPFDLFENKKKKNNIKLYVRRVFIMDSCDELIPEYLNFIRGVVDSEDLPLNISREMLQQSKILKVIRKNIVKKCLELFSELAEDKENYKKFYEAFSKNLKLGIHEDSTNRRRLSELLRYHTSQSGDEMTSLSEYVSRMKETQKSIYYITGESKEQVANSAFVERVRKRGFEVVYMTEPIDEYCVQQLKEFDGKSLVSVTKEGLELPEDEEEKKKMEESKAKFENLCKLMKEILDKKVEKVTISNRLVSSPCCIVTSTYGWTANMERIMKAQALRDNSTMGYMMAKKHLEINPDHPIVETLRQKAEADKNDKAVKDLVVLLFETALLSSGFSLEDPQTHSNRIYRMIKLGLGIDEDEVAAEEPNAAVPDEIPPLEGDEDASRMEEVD

Kd [3] [µM]	Kd [4] [µM]	Compound	further results
		CC(C)C[C@@H]1NC(=O)[C@H](CCCCNC(=O)OCc2ccccc2)NC(=O)[C@H](Cc2ccccc2)NC(=O)[C@@H](Cc2ccccc2)N(C)C(=O)[C@H](C(C)C)NC1=O	Activity [1]: Active; Activity [2]: Active
		CC(C)C[C@@H]1NC(=O)[C@H](Cc2ccccc2)NC(=O)[C@H](CC(C)C)NC(=O)[C@H](C(C)C)NC(=O)[C@H](CC(C)C)NC1=O (cyclo(FLLVL))	Kd [1]: 100 µM
		CO[C@@H]1[C@@H](OC(N)=O)[C@@H](O)[C@H](Oc2ccc3c(O)c(NC(=O)c4ccc(O)c(CC=C(C)C)c4)c(=O)oc3c2C)OC1(C)C [NOVOBIOCIN]	Activity (Jurkat): 700 µM
120	180	CC(C)C[C@@H]1NC(=O)[C@H](CCCCNC(=O)OCc2ccccc2)NC(=O)[C@H](CCCCNC(=O)c2ccc(C(=O)O)c(-c3c4ccc(=O)cc-4oc4cc(O)ccc34)c2)NC(=O)[C@@H](Cc2ccccc2)N(C)C(=O)[C@H](C(C)C)NC1=O	
55	103	CC(C)[C@@H]1NC(=O)[C@H](CCCCNC(=O)c2ccc(C(=O)O)c(-c3c4ccc(=O)cc-4oc4cc(O)ccc34)c2)NC(=O)[C@H](CCCCNC(=O)OCc2ccccc2)NC(=O)[C@H](Cc2ccccc2)NC(=O)[C@@H](Cc2ccccc2)N(C)C1=O	
27	57	CC(C)C[C@@H]1NC(=O)[C@H](CCCCNC(=O)OCc2ccccc2)NC(=O)[C@H](Cc2ccccc2)NC(=O)[C@@H](Cc2ccccc2)N(C)C(=O)[C@H](CCCCNC(=O)c2ccc(C(=O)O)c(-c3c4ccc(=O)cc-4oc4cc(O)ccc34)c2)NC1=O	
		CC(C)C[C@@H]1NC(=O)[C@H](Cc2ccccc2)NC(=O)[C@H](CC(C)C)NC(=O)[C@H](C(C)C)NC(=O)[C@H](CCCCNC(=O)CCOCCOCCOCCOCCNC(=O)CCCC[C@@H]2SC[C@@H]3NC(=O)N[C@@H]32)NC1=O (cyclo(FLK([PEG4-Biotin])VL))	Kd [5]: 20 µM

Reference: ChEMBL document CHEMBL1921738, “A small molecule that preferentially binds the closed conformation of Hsp90” (Bioorg Med Chem Lett, 2011)
